Format in all cases: cell-based
In one assay the test system is OVCAR-3. As to the kind of experiment: CellTiter-Glo Luminescent Cell Viability Assay, OVCAR-3. As to conditions: ovarian cancer cell line, FIG. 17. The source says: (§1) The effects of anti-Notch1 NRR and the gamma secretase inhibitors DAPT and “Compound E” (CmpE) on a panel of cancer cell lines were examined. […] This assay determines the number of viable cells in culture based on quantitation of ATP present, which is an indication of metabolically active cells. Luminescence is quantified as “relative luminescent units” in FIG. 17 (y-axis).

A further assay relates to MT-3. As to the kind of experiment: CellTiter-Glo Luminescent Cell Viability Assay, MT-3. The note with it: breast carcinoma line, FIG. 17.
Excerpt: as §1
Background: ATP-based viability assays read luminescence as a measure of living cells.

In the next assay the test system is Mouse C2C12 myoblasts. In words: C2C12 myoblast differentiation assay. As to conditions: Antibody A 200 ng/ml, Compound E 1 uM, four days, FIG. 9 and 10. The protocol:
Mouse C2C12 myoblasts differentiate into myotubes when treated with differentiation medium. Co-culture with Jagged1 ligand-expressing cells inhibits differentiation by stimulating Notch signaling.
In particular, mouse C2C12 myoblast cells were plated in a 24-well tissue culture dish with a sterile round, 10 mm cover slip in the bottom at 2.5×10^4 cells per ml, using 1 ml per well. Cells were allowed to attach and grow for 22 hours in growth medium (DMEM with 10% FBS) at 37° C., 5% CO2. The growth medium was then aspirated and differentiation medium (DM) was added (DMEM with 6% Horse Serum). Cells were treated with: A. DM alone; B. DM with 3T3-J1 cells; C. […] Cells were incubated at 37° C., 5% CO2 under these conditions for four days. Cover slips were retrieved, and cells were fixed with 4% paraformaldehyde and permeablized with 0.2% Triton X-100 in PBS. Cells were then blocked with 10% FBS in PBS. An antibody recognizing Myosin Heavy Chain (Millipore, Anti-Myosin HC, clone A4.1025 ascites) and a goat anti-mouse IgG (H+L) secondary antibody conjugated to Alexa® 488 (Molecular Probes) was used to stain the differentiated myotubes. DAPI was used to counter-stain the nuclei. Images of three different fields were taken for each condition. Metamorph software (Molecular Devices) was used to count the number of nuclei and the area of Alexa® 488 stain. […]

The values that follow come from patent US10005844B2, “Polynucleotides encoding anti-Notch1 NRR antibody polypeptides” (Genentech, Inc., priority 2007, dated 2018).

Structures are written as SMILES.

Consider `C[C@H](NC(=O)Cc1cc(F)cc(F)c1)C(=O)N[C@H](C(=O)OC(C)(C)C)c1ccccc1` [DAPT, N—[N-(3,5-difluorophenacetyl)-L-alanyl]-S-phenylglycine t-butyl ester], for which, in the assay on OVCAR-3, the “Cell viability (ATP levels), OVCAR-3” value is “reduced ATP levels”. Besides, the “Cell viability (ATP levels), MT-3” value with MT-3 was “reduced ATP levels”.

Turning to `C[C@H](NC(=O)Cc1cc(F)cc(F)c1)C(=O)N[C@H]1N=C(c2ccccc2)c2ccccc2N(C)C1=O` [Compound E], in the assay on OVCAR-3, the “Cell viability (ATP levels), OVCAR-3” value was “reduced ATP levels”. Further, in the assay with MT-3, the “Cell viability (ATP levels), MT-3” value is “reduced ATP levels”. Moreover, in the assay on Mouse C2C12 myoblasts, the “Differentiation of C2C12 myoblasts blocked by Jagged1 co-culture” value is “restored differentiation”.
